Results on 14 compounds are retold here after patent publication US4138423A, “N-dithio carbamoyl oximes” (priority 1976, dated 1979).

In brackets after ≈: the same amount, converted by molar mass. Some results are limits rather than exact numbers.

The subject of data set [1] is two-spotted mite. As to the kind of experiment: Mite Foliage Spray Test. The following applies: Tetranychus urticae, foliar, read-out: Mite LD50. The protocol: (§1) The test procedures were as follows:
Adults and nymphal stages of the two-spotted mite (Tetranychus urticae Koch), reared on Tendergreen bean plants at 80±5° percent relative humidity, were the test organisms. Infested leaves from a stock culture were placed on the primary leaves of two bean plants six to eight inches in height, growing in a two- and-a-half inch clay pot. 150-200 mites, a sufficient number for testing, transferred from the excised leaves to the fresh plants in a period of twenty four hours. Following the twenty four hour transfer period, the excised leaves were removed from the infested plants. […] The sprayed plants were held at 80±5 percent relative humidity for six days, after which a mortality count of motile forms was made. […] Any individual which was capable of locomotion upon prodding was considered living.

The subject of data set [2] is bean aphid. Briefly: whole plant or invertebrate. As to conditions: foliar, read-out: Aphid LD50.
Data set [3] is described as follows: peroral toxicity to mammals (rat). As to conditions: in vivo, po, peroral, Table I, read-out: A.O. Rat. LD50. The protocol: (§2) Certain of these compositions were also evaluated to determine their peroral toxicity to mammals. The animal selected for this experiment was the rat. The test results obtained are expressed in terms of the number of milligrams of compositions per kilogram of weight of the animal required to achieve a mortality rate of 50 percent (LD50).

In data set [4] the test system is southern armyworm. As to the kind of experiment: Southern Armyworm Leaf Spray Test. The following applies: Spodoptera eridania, read-out: Armyworm LD50.
Method: The thus-prepared stock suspension contained 0.5 percent by weight of compound. The test concentrations in parts per million by weight employed in the tests described hereinbelow were obtained by appropriate dilutions of the stock suspension with water. The test procedures were as follows:
Larvae of the southern armyworm (Prodenia eridania, (Cram.)), reared on Tendergreen bean plants at a temperature of 80±5° F. and a relative humidity of 50±5 percent, constituted the test insects.
Potted Tendergreen bean plants of standard height and age were placed on a revolving turntable and sprayed with 100-110 milliliters of test compound formulation by use of a DeVilbiss spray gun set at 10 psig air pressure. This application, which lasted 25 seconds, was sufficient to wet plants to run-off. As a control, 100-110 milliliters of a water-acetone-emulsifier solution containing no test compound were also sprayed on infested plants. When dry, the paired leaves were separated and each one was placed in a 9 centimeter Petri dish lined with moistened filter paper. Five randomly selected larvae were introduced into each dish and the dishes were closed. The closed dishes were labeled and held at 80-85° F. for three days. Although the larvae could easily consume the whole leaf within twenty-four hours, no more food was added. Larvae which were unable to move the length of the body, even upon stimulation by prodding, were considered dead. Percent mortality was recorded for various concentration levels.
(§3) The test procedures described above were employed in these experiments in order to determine the LD50 (number of parts per million of active ingredients required to achieve fifty percent mortality of the insects tested) for each of the compositions tested.
Data set [5] deals with Mexican bean beetle. Briefly: Mexican Bean Beetle Leaf Spray Test. The following applies: Epilachna varivestis, read-out: Beetle LD50. How it is done:
as §1
The closed dishes were labeled and held at a temperature of 80±5° F. for three days. Although the larvae could easily consume the leaf within 24 to 48 hours, no more food was added.

Data set [6] concerns house flies. As to the kind of experiment: Fly Bait Test. The following applies: Musca domestica, read-out: Fly LD50.
Method: The test concentrations in parts per million by weight employed in the tests described hereinbelow were obtained by appropriate dilutions of the stock suspension with water. The test procedures were as follows:
Four to six day old adult house flies (Musca domestica, L.) reared according to the specifications of the Chemical Specialities Manufacturing Association (Blue Book, McNair-Dorland Co., N.Y. 1954; pages 243-244, 261) under controlled conditions of 80±5° F. and 50±5 percent relative humidity, were the test insects. The flies were immobilized by anesthetizing with carbon dioxide and twenty five immobilized individuals,males and females, were transferred to a cage consisting of a standard food strainer about five inches in diameter which was inverted over a wrapping-paper-covered surface. […] Ten milliliters of the test formulation were added to a souffle cup containing a one-inch square of an absorbent cotton pad. This bait cup was introduced and centered on the blotting paper under the food strainer prior to admitting the anesthetized flies. The caged flies were allowed to feed on the bait for twenty four hours, at a temperature of 80±5° F. and the relative humidity of 50±5 percent.
as §3
For data set [7], the system named is cotton, tomatoes, beans and corn. Briefly: phytotoxicity to crops. As to conditions: compared with N-methyl carbamate compounds.
For data set [8], the system named is rat. Briefly: peroral toxicity to mammals (rat). The following applies: in vivo, po. The protocol:
as §2

With `CSC(C)=NOC(=O)N(C)SSC(C)(C)C` [Example II (Table II)], the values for the LC50 in data set [1] and in data set [2] were greater than 500 µg/mL and 1.3 µg/mL (≈ 4.6 µM), respectively.

`CC(=NOC(=O)N(C)SSC(C)(C)C)SCCC#N` [XIII]: the LD50 (in general, the dose at which mortality reaches 50%) in data set [3] turned out to be 10 mg/kg.

`CSC(C)=NOC(=O)N(C)SSc1ccccc1` [IX, 1-Methylthioacetaldehyde O-[N-methyl-N-(phenylthiosulfenyl)carbamoyl]oxime]: the LD50 in data set [3] amounted to 143 mg/kg.

Regarding `CSC(C)=NOC(=O)N(C)SSc1ccc(Cl)cc1` [Example III, 1-Methylthioacetaldehyde O-[N-methyl-N-(4-chlorophenylthiosulfenyl)carbamoyl]oxime], in data set [3], the LD50 was found to be 160 mg/kg.

`CSC(C)=NOC(=O)N(C)SSC(C)C` [XV]: the LD50 in data set [3] came to 113 mg/kg.

With `CC(=NOC(=O)N(C)SSC(C)(C)C)SC(C)C` [Example III (Table II)], the LC50 in data set [1] came to 125 µg/mL (≈ 403 µM); in data set [2] it was 9 µg/mL (≈ 29 µM).

Turning to `CNC(=O)ON=C(C)SC` [Methomyl, reference compound], the LC50 is greater than 500 µg/mL in data set [1], 11 µg/mL (≈ 67.8 µM) in data set [4], 70 µg/mL (≈ 432 µM) in data set [5] and 4 µg/mL (≈ 24.7 µM) in data set [6]. For the same compound, the “phytotoxicity to important economic crops” value in data set [7] is listed as “highly susceptible to phytotoxic injury”. Also, the “Rat LD50” value in data set [8] stood at 48 mg/kg.

With `CC(=NOC(=O)N(C)SSC(C)C)SCCC#N` [IV], the LD50 in data set [3] turned out to be 14.1 mg/kg.

For the compound `CC(=NOC(=O)N(C)SSC(C)(C)C)SC(C)C` [XII], the LC50 in data set [4] was found to be 35 µg/mL (≈ 113 µM); in data set [5], 31 µg/mL (≈ 99.8 µM); in data set [6] it was 42 µg/mL (≈ 135 µM). In addition, the LD50 in data set [3] was 30.8 mg/kg.

For `CSC(C)=NOC(=O)N(C)SSC(C)(C)C` [Example I, 1-Methylthioacetaldehyde O-[N-methyl-N-(2-methyl-2-propanethiosulfenyl)carbamoyl]oxime], the LC50 in data set [4] was 6 µg/mL (≈ 21.2 µM); in data set [5], 40 µg/mL (≈ 142 µM); in data set [6], 4 µg/mL (≈ 14.2 µM). Besides, in data set [3], the LD50 worked out at 143 mg/kg.

Consider `CSC(C)=NOC(=O)N(C)SSc1ccc(C)cc1` [X, 1-Methylthioacetaldehyde O-[N-methyl-N-(4-methylphenylthiosulfenyl)carbamoyl]oxime], for which, in data set [3], the LD50 was 63.5 mg/kg.

With `CSC(C)=NOC(=O)N(C)SSc1ccc(C(C)(C)C)cc1` [XI], the LD50 in data set [3] turned out to be 180 mg/kg.

With `CSC(C)(C)C=NOC(=O)N(C)SSc1ccc(Cl)cc1` [XIV], in data set [3], the LD50 worked out at 2 mg/kg.

Turning to `CSC(C)=NOC(=O)N(C)SSC1CCCCC1` [Example II, 1-Methylthioacetaldehyde O-[N-methyl-N-(cyclohexanethiosulfenyl)carbamoyl]oxime], the LD50 in data set [3] is 101 mg/kg.
